Laboratory results taken from patent publication US8541460B2, “PDK-1/Akt signaling inhibitors” (The Ohio State University, priority 2003, dated 2013).

What was measured:
ACHN = test: NCI DTP cell line screen (SRB), Renal Cancer; assay type: cell-based, human
Protocol: (§1) Screening of compounds 70 and 71 against several cancer cell lines The human tumor cell lines of the cancer screening panel are grown in RPMI 1640 medium containing 5% fetal bovine serum and 2 mM L-glutamine. For a typical screening experiment, cells are inoculated into 96 well microtiter plates in 100 μL at plating densities ranging from 5,000 to 40,000 cells/well depending on the doubling time of individual cell lines. After cell inoculation, the microtiter plates are incubated at 37° C., 5% CO2, 95% air and 100% relative humidity for 24 h prior to addition of experimental drugs.
(§2) After 24 h, two plates of each cell line are fixed in situ with TCA, to represent a measurement of the cell population for each cell line at the time of drug addition (Tz). Experimental drugs are solubilized in dimethyl sulfoxide at 400-fold the desired final maximum test concentration and stored frozen prior to use. At the time of drug addition, an aliquot of frozen concentrate is thawed and diluted to twice the desired final maximum test concentration with complete medium containing 50 μg/ml gentamicin. Additional four, 10-fold or ½ log serial dilutions are made to provide a total of five drug concentrations plus control. Aliquots of 100 μl of these different drug dilutions are added to the appropriate microtiter wells already containing 100 μl of medium, resulting in the required final drug concentrations.
(§3) Following drug addition, the plates are incubated for an additional 48 h at 37° C., 5% CO2, 95% air, and 100% relative humidity. For adherent cells, the assay is terminated by the addition of cold TCA. Cells are fixed in situ by the gentle addition of 50 μl of cold 50% (w/v) TCA (final concentration, 10% TCA) and incubated for 60 minutes at 4° C. The supernatant is discarded, and the plates are washed five times with tap water and air dried. Sulforhodamine B (SRB) solution (100 μl) at 0.4% (w/v) in 1% acetic acid is added to each well, and plates are incubated for 10 minutes at room temperature. After staining, unbound dye is removed by washing five times with 1% acetic acid and the plates are air dried. Bound stain is subsequently solubilized with 10 mM trizma base, and the absorbance is read on an automated plate reader at a wavelength of 515 nm. For suspension cells, the methodology is the same except that the assay is terminated by fixing settled cells at the bottom of the wells by gently adding 50 μl of 80% TCA (final concentration, 16% TCA). Using the seven absorbance measurements [time zero, (Tz), control growth, (C), and test growth in the presence of drug at the five concentration levels (Ti)], the percentage growth is calculated at each of the drug concentrations levels. Percentage growth inhibition is calculated as: [(Ti−Tz)/(C−Tz)]×100 for concentrations for which Ti>/=Tz [(Ti−Tz)/Tz]×100 for concentrations for which Ti<Tz
(§4) Three dose response parameters are calculated for each experimental agent. […] The drug concentration resulting in total growth inhibition (TGI) is calculated from Ti=Tz. […] Values are calculated for each of these three parameters if the level of activity is reached; however, if the effect is not reached or is exceeded, the value for that parameter is expressed as greater or less than the maximum or minimum concentration tested.
(§5) The methods described were used to test compounds 70 and 71 on a panel of sixty cell lines under a screening service provided by the Developmental Therapeutics Program at the National Institutes of Health. Shown in FIG. 1C are 1, RPMI-8226 leukemia cells; 2; NCI-H322M non-small cell lung cancer cells; 3, HT29 colon cancer cells; 4, U251 CNS cancer cells; 5, SK-MEL-28 melanoma cancer cells; 6, SK-OV-3 ovarian cancer cells; 7, RXF 393 renal cancer cells; 8, PC-3 prostate cancer cells; 9, MDA-MB-231 breast cancer cells.

RXF 393 = test: NCI DTP cell line screen (SRB), Renal Cancer; assay type: cell-based, human
Protocol: as §1, §2, §3, §4, §5

CAKI-1 = test: NCI DTP cell line screen (SRB), Renal Cancer; assay type: cell-based, human
Protocol: as §1, §2, §3, §4, §5

UO-31 = test: NCI DTP cell line screen (SRB), Renal Cancer; assay type: cell-based, human
Protocol: as §1, §2, §3, §4, §5

HOP-62 = test: NCI DTP cell line screen (SRB), Non-Small Cell Lung Cancer; assay type: cell-based
Protocol: as §1, §2, §3, §4, §5

NCI-H23 = test: as above; assay type: cell-based
Protocol: as §1, §2, §3, §4, §5

NCI-H322M = test: as above; assay type: cell-based
Protocol: as §1, §2, §3, §4, §5

A549/ATCC = test: as above; assay type: cell-based
Protocol: as §1, §2, §3, §4, §5

[1] = read-out: LC50 (the source's name)

In the case of `N=C(N)Nc1ccc(-n2nc(C(F)(F)F)cc2-c2ccc3c(ccc4ccccc43)c2)cc1` [Compound 71, 4-[5-(2-Phenanthrenyl)-3-(trifluoromethyl)-1H-pyrazol-1-yl]-phenyl-guanidine], the GI50 (ACHN) is reported as 1.67 µM, the “Mean Optical Densities” value (ACHN; Log10 Concentration −4.0) is reported as 0.291 and the “Percent Growth” value (ACHN; Log10 Concentration −4.0) is reported as −22%. For the same compound, the “Mean Optical Densities” value (ACHN; Log10 Concentration −5.0) was 0.034, the “Percent Growth” value (ACHN; Log10 Concentration −5.0) was −91% and the “Mean Optical Densities” value (ACHN; Log10 Concentration −6.0) was 0.964. The “Percent Growth” value (ACHN; Log10 Concentration −6.0) was 90%, the “Mean Optical Densities” value (ACHN; Log10 Concentration −7.0) was 0.902 and the “Percent Growth” value (ACHN; Log10 Concentration −7.0) was 81%. The “Mean Optical Densities” value (ACHN; Log10 Concentration −8.0) was 0.898, the “Percent Growth” value (ACHN; Log10 Concentration −8.0) was 80% and the TGI (ACHN; in M (unit assumed)) was 3.15E−06. The TGI (RXF 393) was 2.91E−06, the “Mean Optical Densities” value (RXF 393; Log10 Concentration −4.0) was 0.385 and the “Percent Growth” value (RXF 393; Log10 Concentration −4.0) was −4%. The “Mean Optical Densities” value (RXF 393; Log10 Concentration −5.0) was 0.156, the “Percent Growth” value (RXF 393; Log10 Concentration −5.0) was −61% and the “Mean Optical Densities” value (RXF 393; Log10 Concentration −6.0) was 0.629. For the same compound, the “Percent Growth” value (RXF 393; Log10 Concentration −6.0) was 53%, the “Mean Optical Densities” value (RXF 393; Log10 Concentration −7.0) was 0.629 and the “Percent Growth” value (RXF 393; Log10 Concentration −7.0) was 53%. For the same compound, the “Mean Optical Densities” value (RXF 393; Log10 Concentration −8.0) was 0.582, the “Percent Growth” value (RXF 393; Log10 Concentration −8.0) was 42% and the GI50 (CAKI-1) was 1.83 µM. For the same compound, the “Mean Optical Densities” value (CAKI-1; Log10 Concentration −4.0) was 0.315, the “Percent Growth” value (CAKI-1; Log10 Concentration −4.0) was −47% and the “Mean Optical Densities” value (CAKI-1; Log10 Concentration −5.0) was −0.067. The “Percent Growth” value (CAKI-1; Log10 Concentration −5.0) was −100%, the “Mean Optical Densities” value (CAKI-1; Log10 Concentration −6.0) was 1.804 and the “Percent Growth” value (CAKI-1; Log10 Concentration −6.0) was 103%. For the same compound, the “Mean Optical Densities” value (CAKI-1; Log10 Concentration −7.0) was 1.642, the “Percent Growth” value (CAKI-1; Log10 Concentration −7.0) was 89% and the “Mean Optical Densities” value (CAKI-1; Log10 Concentration −8.0) was 1.735. For the same compound, the “Percent Growth” value (CAKI-1; Log10 Concentration −8.0) was 97%, the TGI (CAKI-1; in M (unit assumed)) was 3.22E−06 and the GI50 (UO-31) was 1.57 µM. The “Mean Optical Densities” value (UO-31; Log10 Concentration −4.0) was 0.288, the “Percent Growth” value (UO-31; Log10 Concentration −4.0) was −35% and the “Mean Optical Densities” value (UO-31; Log10 Concentration −5.0) was −0.030. The “Percent Growth” value (UO-31; Log10 Concentration −5.0) was −100%, the “Mean Optical Densities” value (UO-31; Log10 Concentration −6.0) was 1.332 and the “Percent Growth” value (UO-31; Log10 Concentration −6.0) was 87%. For the same compound, the “Mean Optical Densities” value (UO-31; Log10 Concentration −7.0) was 1.407, the “Percent Growth” value (UO-31; Log10 Concentration −7.0) was 94% and the “Mean Optical Densities” value (UO-31; Log10 Concentration −8.0) was 1.375. The “Percent Growth” value (UO-31; Log10 Concentration −8.0) was 91%, the TGI (UO-31; in M (unit assumed)) was 2.92E−06 and the GI50 (HOP-62) was 1.72 µM. For the same compound, the TGI (HOP-62) was 3.12E−06, the “Mean Optical Densities” value (HOP-62; Log10 Concentration −4.0) was 0.329 and the “Percent Growth” value (HOP-62; Log10 Concentration −4.0) was −36%. For the same compound, the “Mean Optical Densities” value (HOP-62; Log10 Concentration −5.0) was 0.011, the “Percent Growth” value (HOP-62; Log10 Concentration −5.0) was −98% and the “Mean Optical Densities” value (HOP-62; Log10 Concentration −6.0) was 1.255. The “Percent Growth” value (HOP-62; Log10 Concentration −6.0) was 96%, the “Mean Optical Densities” value (HOP-62; Log10 Concentration −7.0) was 1.267 and the “Percent Growth” value (HOP-62; Log10 Concentration −7.0) was 97%. For the same compound, the “Mean Optical Densities” value (HOP-62; Log10 Concentration −8.0) was 1.285, the “Percent Growth” value (HOP-62; Log10 Concentration −8.0) was 100% and the GI50 (NCI-H23) was 1.79 µM. For the same compound, the TGI (NCI-H23) was 3.18E−06, the “Mean Optical Densities” value (NCI-H23; Log10 Concentration −4.0) was 0.151 and the “Percent Growth” value (NCI-H23; Log10 Concentration −4.0) was −67%. The “Mean Optical Densities” value (NCI-H23; Log10 Concentration −5.0) was −0.041, the “Percent Growth” value (NCI-H23; Log10 Concentration −5.0) was −100% and the “Mean Optical Densities” value (NCI-H23; Log10 Concentration −6.0) was 1.679. For the same compound, the “Percent Growth” value (NCI-H23; Log10 Concentration −6.0) was 101%, the “Mean Optical Densities” value (NCI-H23; Log10 Concentration −7.0) was 1.515 and the “Percent Growth” value (NCI-H23; Log10 Concentration −7.0) was 87%. For the same compound, the “Mean Optical Densities” value (NCI-H23; Log10 Concentration −8.0) was 1.585, the “Percent Growth” value (NCI-H23; Log10 Concentration −8.0) was 93% and the CC50 (NCI-H23; [1]) was 5.64 µM. For the same compound, the GI50 (NCI-H322M) was 1.36 µM, the TGI (NCI-H322M) was 2.64E−06 and the “Mean Optical Densities” value (NCI-H322M; Log10 Concentration −4.0) was 0.257. The “Percent Growth” value (NCI-H322M; Log10 Concentration −4.0) was −59%, the “Mean Optical Densities” value (NCI-H322M; Log10 Concentration −5.0) was −0.052 and the “Percent Growth” value (NCI-H322M; Log10 Concentration −5.0) was −100%. For the same compound, the “Mean Optical Densities” value (NCI-H322M; Log10 Concentration −6.0) was 1.031, the “Percent Growth” value (NCI-H322M; Log10 Concentration −6.0) was 73% and the “Mean Optical Densities” value (NCI-H322M; Log10 Concentration −7.0) was 1.049. For the same compound, the “Percent Growth” value (NCI-H322M; Log10 Concentration −7.0) was 76%, the “Mean Optical Densities” value (NCI-H322M; Log10 Concentration −8.0) was 0.988 and the “Percent Growth” value (NCI-H322M; Log10 Concentration −8.0) was 65%. The CC50 (NCI-H322M; [1]) was 5.14 µM, the GI50 (A549/ATCC) was 1.68 µM and the TGI (A549/ATCC) was 3.04E−06. For the same compound, the “Mean Optical Densities” value (A549/ATCC; Log10 Concentration −4.0) was 0.135, the “Percent Growth” value (A549/ATCC; Log10 Concentration −4.0) was −63% and the “Mean Optical Densities” value (A549/ATCC; Log10 Concentration −5.0) was −0.032. For the same compound, the “Percent Growth” value (A549/ATCC; Log10 Concentration −5.0) was −100%, the “Mean Optical Densities” value (A549/ATCC; Log10 Concentration −6.0) was 1.121 and the “Percent Growth” value (A549/ATCC; Log10 Concentration −6.0) was 93%. For the same compound, the “Mean Optical Densities” value (A549/ATCC; Log10 Concentration −7.0) was 1.145, the “Percent Growth” value (A549/ATCC; Log10 Concentration −7.0) was 96% and the “Mean Optical Densities” value (A549/ATCC; Log10 Concentration −8.0) was 1.140. The “Percent Growth” value (A549/ATCC; Log10 Concentration −8.0) was 96% and the CC50 (A549/ATCC; [1]) was 5.51 µM.
